Assay results reported in publication PMC10504751, “Chalcone/1,3,4-Oxadiazole/Benzimidazole hybrids as novel anti-proliferative agents inducing apoptosis and inhibiting EGFR & BRAFV^600E” (BMC Chemistry, 2023).

What was measured:
PC-3 = experiment: NCI one-dose SRB anti-proliferative screen; assay type: cell-based; conditions: Homo sapiens; PC-3, Prostate Cancer; NCI one dose; read-out: Cell growth inhibition %
In short: (§1)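 10 µM test compound → cell exposure → SRB staining → colorimetric measurement of growth.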

HT29 = experiment: NCI one-dose SRB anti-proliferative screen; assay type: cell-based; conditions: Homo sapiens, HT-29; HT29, Colon cancer; NCI one dose; read-out: Cell growth inhibition %
In short: as §1

M14 = experiment: NCI one-dose SRB anti-proliferative screen; assay type: cell-based; conditions: Homo sapiens; M14, Melanoma; NCI one dose; read-out: Cell growth inhibition %
In short: as §1

NCI/ADR-RES = experiment: NCI one-dose SRB anti-proliferative screen; assay type: cell-based; conditions: Homo sapiens; NCI/ADR-RES, Ovarian Cancer; NCI one dose; read-out: Cell growth inhibition %
In short: as §1

OVCAR-3 = experiment: NCI one-dose SRB anti-proliferative screen; assay type: cell-based; conditions: Homo sapiens; OVCAR-3, Ovarian Cancer; NCI one dose; read-out: Cell growth inhibition %
In short: as §1

HS 578T = experiment: NCI one-dose SRB anti-proliferative screen; assay type: cell-based; conditions: Homo sapiens; HS 578T, Breast cancer; NCI one dose; read-out: Cell growth inhibition %
In short: as §1

SNB-75 = experiment: NCI one-dose SRB anti-proliferative screen; assay type: cell-based; conditions: Homo sapiens; SNB-75, CNS Cancer; NCI one dose; read-out: Cell growth inhibition %
In short: as §1

OVCAR-4 = experiment: NCI one-dose SRB anti-proliferative screen; assay type: cell-based; conditions: Homo sapiens; OVCAR-4, Ovarian Cancer; NCI one dose; read-out: Cell growth inhibition %
In short: as §1

CCRF-CEM = experiment: NCI one-dose SRB anti-proliferative screen; assay type: cell-based; conditions: Homo sapiens; CCRF-CEM, Leukemia; NCI one dose; read-out: Cell growth inhibition %
In short: as §1

UACC-257 = experiment: NCI one-dose SRB anti-proliferative screen; assay type: cell-based; conditions: Homo sapiens; UACC-257, Melanoma; NCI one dose; read-out: Cell growth inhibition %
In short: as §1

COLO 205 = experiment: NCI one-dose SRB anti-proliferative screen; assay type: cell-based; conditions: Homo sapiens; COLO 205, Colon cancer; NCI one dose; read-out: Cell growth inhibition %
In short: as §1

SN12C = experiment: NCI one-dose SRB anti-proliferative screen; assay type: cell-based; conditions: Homo sapiens, SN 12C, Renal cancer, NCI one dose, read-out: Cell growth inhibition %
In short: as §1

NCI-H460 = experiment: NCI one-dose SRB anti-proliferative screen; assay type: cell-based; conditions: Homo sapiens; NCI-H460, Non-Small Cell Lung Cancer; NCI one dose; read-out: Cell growth inhibition %
In short: as §1

ACHN = experiment: NCI one-dose SRB anti-proliferative screen; assay type: cell-based; conditions: Homo sapiens; ACHN, Renal cancer; NCI one dose; read-out: Cell growth inhibition %
In short: as §1

KM12 = experiment: NCI one-dose SRB anti-proliferative screen; assay type: cell-based; conditions: Homo sapiens; KM12, Colon cancer; NCI one dose; read-out: Cell growth inhibition %
In short: as §1

HCT-15 = experiment: NCI one-dose SRB anti-proliferative screen; assay type: cell-based; conditions: Homo sapiens; HCT-15, Colon cancer; NCI one dose; read-out: Cell growth inhibition %
In short: as §1

OVCAR-5 = experiment: NCI one-dose SRB anti-proliferative screen; assay type: cell-based; conditions: Homo sapiens; OVCAR-5, Ovarian Cancer; NCI one dose; read-out: Cell growth inhibition %
In short: as §1

DU-145 = experiment: NCI one-dose SRB anti-proliferative screen; assay type: cell-based; conditions: Homo sapiens; DU-145, Prostate Cancer; NCI one dose; read-out: Cell growth inhibition %
In short: as §1

HL-60(TB) = experiment: NCI one-dose SRB anti-proliferative screen; assay type: cell-based; conditions: Homo sapiens; HL-60(TB), Leukemia; NCI one dose; read-out: Cell growth inhibition %
In short: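 Activity reflects a single-point exposure at 10 µM, with cell mass determined by a sulforhodamine B dye assay.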

HOP-92 = experiment: NCI one-dose SRB anti-proliferative screen; assay type: cell-based; conditions: Homo sapiens; HOP-92, Non-Small Cell Lung Cancer; NCI one dose; read-out: Cell growth inhibition %
In short: as §1

SW-620 = experiment: NCI one-dose SRB anti-proliferative screen; assay type: cell-based; conditions: Homo sapiens; SW-620, Colon cancer; NCI one dose; read-out: Cell growth inhibition %
In short: as §1

RPMI-8226 = experiment: NCI one-dose SRB anti-proliferative screen; assay type: cell-based; conditions: Homo sapiens; RPMI-8226, Leukemia; NCI one dose; read-out: Cell growth inhibition %
In short: as §1

A549/ATCC = experiment: NCI one-dose SRB anti-proliferative screen; assay type: cell-based; conditions: Homo sapiens; A549/ATCC, Non-Small Cell Lung Cancer; NCI one dose; read-out: Cell growth inhibition %
In short: as §1

MALME-3M = experiment: NCI one-dose SRB anti-proliferative screen; assay type: cell-based; conditions: Homo sapiens; MALME-3M, Melanoma; NCI one dose; read-out: Cell growth inhibition %
In short: as §1

MDA-MB-468 = experiment: NCI one-dose SRB anti-proliferative screen; assay type: cell-based; conditions: Homo sapiens; MDA-MB-468, Breast cancer; NCI one dose; read-out: Cell growth inhibition %
In short: as §1

SK-MEL-2 = experiment: NCI one-dose SRB anti-proliferative screen; assay type: cell-based; conditions: Homo sapiens; SK-MEL-2, Melanoma; NCI one dose; read-out: Cell growth inhibition %
In short: as §1

SF-268 = experiment: NCI one-dose SRB anti-proliferative screen; assay type: cell-based; conditions: Homo sapiens; SF-268, CNS Cancer; NCI one dose; read-out: Cell growth inhibition %
In short: as §1

UACC-62 = experiment: NCI one-dose SRB anti-proliferative screen; assay type: cell-based; conditions: Homo sapiens; UACC-62, Melanoma; NCI one dose; read-out: Cell growth inhibition %
In short: as §1

SK-MEL-28 = experiment: NCI one-dose SRB anti-proliferative screen; assay type: cell-based; conditions: Homo sapiens; SK-MEL-28, Melanoma; NCI one dose; read-out: Cell growth inhibition %
In short: as §1

LOX IMVI = experiment: NCI one-dose SRB anti-proliferative screen; assay type: cell-based; conditions: Homo sapiens; for inhibition at 10 µM: Melanoma, NCI one dose, read-out: Cell growth inhibition %; for activity at 10 µM: LOX IMVI (Melanoma), 10 µM one dose, read-out: Growth Percent
In short: as §1

SF-539 = experiment: NCI one-dose SRB anti-proliferative screen; assay type: cell-based; conditions: Homo sapiens; SF-539, CNS Cancer; NCI one dose; read-out: Cell growth inhibition %
In short: as §1

| Structure (SMILES) | inhibition at 10 µM (PC-3) | inhibition at 10 µM (HT29) | inhibition at 10 µM (M14) | inhibition at 10 µM (NCI/ADR-RES) | inhibition at 10 µM (OVCAR-3) | inhibition at 10 µM (HS 578T) | inhibition at 10 µM (SNB-75) | inhibition at 10 µM (OVCAR-4) | inhibition at 10 µM (CCRF-CEM) | inhibition at 10 µM (UACC-257) | inhibition at 10 µM (COLO 205) | inhibition at 10 µM (SN12C) | inhibition at 10 µM (NCI-H460) | inhibition at 10 µM (ACHN) | inhibition at 10 µM (KM12) | inhibition at 10 µM (HCT-15) | inhibition at 10 µM (OVCAR-5) | inhibition at 10 µM (DU-145) | inhibition at 10 µM (HL-60(TB)) | inhibition at 10 µM (HOP-92) | also measured |
| --- | --- | --- | --- | --- | --- | --- | --- | --- | --- | --- | --- | --- | --- | --- | --- | --- | --- | --- | --- | --- | --- |
| COc1ccc(-c2nc3cc(-c4nnc(SCC(=O)Nc5ccc(C(=O)/C=C/c6cc(OC)c(OC)c(OC)c6)cc5)o4)ccc3[nH]2)cc1 [Compound 7o, 2-{5-[2-(4-Methoxyphenyl)-1 H-benzo[d]imidazol-5-yl]-1,3,4-oxadiazol-2-ylthio}-N-{4-[(E)-3-(3,4,5-trimethoxyphenyl)acryloyl]phenyl}acetamide] | 0% | 0% | 0% | 0% | 0% | 0% | 1.75% | 0% | 0% | 0% | 0% | 0% | 0% | 0% | 0% | 0% | 0% | 0% | 0% | 0% | melting point: 154 to 156 °C; inhibition at 10 µM (SW-620): 0%; inhibition at 10 µM (RPMI-8226): 23.2%; inhibition at 10 µM (A549/ATCC): 0%; inhibition at 10 µM (MALME-3M): 3.93%; inhibition at 10 µM (MDA-MB-468): 0%; inhibition at 10 µM (SK-MEL-2): 0%; inhibition at 10 µM (SF-268): 0%; inhibition at 10 µM (UACC-62): 5.12%; inhibition at 10 µM (SK-MEL-28): 0%; inhibition at 10 µM (LOX IMVI): 22.9%; inhibition at 10 µM (SF-539): 2.1% |
| COc1ccc(-c2nc3cc(-c4nnc(SCC(=O)Nc5ccc(C(=O)/C=C/c6ccc(Cl)cc6)cc5)o4)ccc3[nH]2)cc1 [Compound 7l, 2-{5-[2-(4-Methoxyphenyl)-1 H-benzo[d]imidazol-5-yl]-1,3,4-oxadiazol-2-ylthio}-N-{4-[(E)-3-(4-chlorophenyl)acryloyl]phenyl}acetamide] | 5.06% | 0% | 0% | 0% | 0% | 9.4% | 5.35% | 0% | 3.98% | 0% | 0% | 11.7% | 0% | 2.31% | 0% | 13.9% | 0.55% | 0% | 5.86% | 5.04% | inhibition at 10 µM (SW-620): 3.03%; inhibition at 10 µM (RPMI-8226): 20.1%; inhibition at 10 µM (A549/ATCC): 0%; inhibition at 10 µM (MALME-3M): 3.9%; inhibition at 10 µM (MDA-MB-468): 1.89%; inhibition at 10 µM (SK-MEL-2): 0%; inhibition at 10 µM (SF-268): 5.15%; inhibition at 10 µM (UACC-62): 6.01%; inhibition at 10 µM (SK-MEL-28): 0%; activity at 10 µM (LOX IMVI): -29.9%; inhibition at 10 µM (LOX IMVI): 130%; inhibition at 10 µM (SF-539): 12.9% |
| COc1ccc(-c2nc3cc(-c4nnc(SCC(=O)Nc5ccc(C(=O)/C=C/c6ccccc6)cc5)o4)ccc3[nH]2)cc1 [Compound 7k, 2-{5-[2-(4-Methoxyphenyl)-1 H-benzo[d]imidazol-5-yl]-1,3,4-oxadiazol-2-ylthio}-N-{4-[(E)-3-phenylacryloyl]phenyl}acetamide] | 22.4% | 14.1% | 12.9% | 10.3% | 0% | 7.69% | 33.7% | 19.1% | 48.2% | 0.49% | 0% | 15.2% | 6.61% | 7.59% | 15.6% | 23.5% | 0% | 9.04% | 28.7% | 20.3% | inhibition at 10 µM (SW-620): 0%; inhibition at 10 µM (RPMI-8226): 86.7%; inhibition at 10 µM (A549/ATCC): 5.82%; inhibition at 10 µM (MALME-3M): 26.6%; inhibition at 10 µM (MDA-MB-468): 19.5%; inhibition at 10 µM (SK-MEL-2): 0%; inhibition at 10 µM (SF-268): 17.1%; inhibition at 10 µM (UACC-62): 20.1%; inhibition at 10 µM (SK-MEL-28): 11.4%; activity at 10 µM (LOX IMVI): 14.9%; inhibition at 10 µM (LOX IMVI): 85.1%; inhibition at 10 µM (SF-539): 27.5% |
